{"source": "patent US5561122A", "about": "“Combretastatin A-4 prodrug” (Arizona Board of Regents acting on behalf of Arizona State …, priority 1994, dated 1996)", "key": {"[1]": {"assay": "stability / reaction with water", "assay_type": "physicochemical"}, "[2]": {"test_system": "NCI 60 cell line panel (human tumor cell lines)", "assay": "NCI 60 cell line full-panel screen (growth inhibition) with COMPARE analysis", "assay_type": "cell-based", "conditions": "for GI50: Homo sapiens, 60 cell, read-out: mean panel GI50 concentration", "description": "The following measures are used to express drug activity by giving the drug dose which reduces cell growth to a specified percentage of growth:\nED50 (P388) and GI50 (HTCL) are the drug doses needed to reduce the percent growth to 50%. There is no mathematical difference between ED50 and GI50, which are both calculated using the same formula. The only difference is historical usage.\nTotal Growth Inhibition (\"TGI\") is the drug dose needed to yield zero percent growth, i.e., just as many cells at the end of the experiment as were present in the beginning. Whether just as many cells were killed as were produced (steady state), or no growth occurred (total inhibition), cannot be distinguished.\nLethal Concentration 50% (\"LC50 \") is the drug concentration which reduces growth to -50%, i.e., removes half of the cells originally present at the beginning of the experiment.\nEach drug is tested at five (5) doses: 100 - 10 - 1 - 0.1 -0.01 μg/ml. Percent Growths are calculated for each dose. The two (or three) doses with growth values above, below, (or near to) 50% growth are used to calculate the ED50 /GI50 using a linear regression formula. The log of the dose is used during the regression computation. If no dose yields a growth value under 50%, the results are expressed as: ED50 >(highest dose). If no dose yields growth higher than 50% growth, then ED50 <(lowest dose). Similar calculations are performed for the TGI at 0% growth, and at -50% growth for the LC50.\nAt the start of an experiment, cells from the in vitro cell cultures are inoculated into the appropriate tubes or microtiter plates. One set of control tubes/plates is immediately counted to determine the number of cells at the start of the experiment. This is the \"baseline count\" or \"Tzero reading\". At the end of the experiment (48 hours later) a second set of control tubes/plates is analyzed to determine the \"Control Growth\" value. The growth (or death) of cells relative to the initial quantity of cells is used to define the \"Percent of Growth\".\nFor further information about the testing protocols and procedures see Anne Monks et al., \"Feasibility of a High-Flux Anticancer Drug Screen Using a Diverse Panel of Cultured Human Tumor Cell Lines\", 83 J. Nat. Cancer Inst. No. 11, pp. 757-66 (5 Jun. 1991) and […], \"Status of the NCI Preclinical Antitumor Drug Discovery Screen\" 3 Princ & Practice of Oncology Updates No. 10, pp. 1-12 (October 1989).\nBy definition a pro-drug is a precursor which will undergo metabolic activation in vivo to the active drug. […] Combretastatin A-4 (1a) and prodrug (1h) were then comparatively evaluated against the full-panel NCI screen (M. R. Boyd, \"Status of the NCI Preclinical Antitumor Drug Discovery Screen: Implications for Selection of New Agents for Clinical trial,\" 3 Cancer: Principles and Practice of Oncology Updates No. 10, pp1-12 (1989) and M. R. Boyd et al. \"The Future of New Drug Development. Section I. Introduction to Cancer Therapy,\" Current Therapy in Oncology. Philadelphia: Decker (1993)). […]"}, "tubulin": {"test_system": "tubulin", "conditions": "Hamel et al., 1989; cited from earlier work"}, "cancer cell": {"test_system": "cancer cell", "conditions": "Von Hoff et al., 1993; cited from earlier work"}}, "note": "Read-outs that look alike come from different tables or passages of the source."}
{"smiles": "COc1ccc(/C=C\\c2cc(OC)c(OC)c(OC)c2)cc1O", "note": "[Compound 1c]", "values": [{"measurement": "reaction with water", "setting": "[1]", "value": "regenerated combretastatin A-4"}]}
{"smiles": "COc1ccc(/C=C\\c2cc(OC)c(OC)c(OC)c2)cc1OP(=O)(O)O", "note": "[Compound 1h, Disodium combretastatin A-4 3-O-Phosphate]", "values": [{"measurement": "GI50", "setting": "[2]; 48 h", "value": 6.89, "unit": "nM"}, {"measurement": "Pearson correlation coefficient for the differential cytotoxicity profiles (TGI-COMPARE)", "setting": "[2]; combretastatin A-4 (1a) vs its prodrug (1h)", "value": 0.91}, {"measurement": "cell growth inhibitory activity", "setting": "[2]; compared with combretastatin (1a)", "value": "comparable"}, {"measurement": "in vitro activity levels in the NCI 60 cell line panel", "setting": "[2]; compared with combretastatin A-4, activity level and COMPARE algorithm", "value": "reasonably similar"}]}
{"smiles": "COc1ccc(/C=C\\c2cc(OC)c(OC)c(OC)c2)cc1OC(=O)CCC(=O)O", "note": "[Compound 1d]", "values": [{"measurement": "reaction with water", "setting": "[1]", "value": "regenerated combretastatin A-4"}, {"measurement": "aqueous solubility (in words)", "setting": "water solubility", "value": "essentially insoluble"}]}
{"smiles": "COc1ccc(/C=C\\c2cc(OC)c(OC)c(OC)c2)cc1O", "note": "[Compound 1b]", "values": [{"measurement": "reaction with water", "setting": "[1]", "value": "regenerated combretastatin A-4"}]}
{"smiles": "COc1ccc(/C=C\\c2cc(OC)c(OC)c(OC)c2)cc1O", "note": "[Compound 1a, combretastatin A-4]", "values": [{"measurement": "GI50", "setting": "[2]; full-panel NCI screen, mean over panel, quadruplicate, 48 hours", "value": 6.61, "unit": "nM"}, {"measurement": "tubulin assembly inhibition", "setting": "tubulin", "value": "potent"}, {"measurement": "cancer cell growth inhibition", "setting": "cancer cell", "value": "potent"}]}
{"smiles": "COc1ccc(/C=C\\c2cc(OC)c(OC)c(OC)c2)cc1OP(=O)(O)O", "note": "[Compound 1f, Ammonium hydrogen combretastatin A-4 3-O Phosphate]", "values": [{"measurement": "aqueous solubility (in words)", "setting": "water solubility", "value": "most soluble"}]}
{"smiles": "COc1ccc(/C=C\\c2cc(OC)c(OC)c(OC)c2)cc1OP(=O)(O)O", "note": "[Compound 1g, Dipotassium combretastatin A-4 3-O-phosphate]", "values": [{"measurement": "stability (in words)", "setting": "[1]", "value": "most stable"}]}
